Patent US4418068A, “Antiestrogenic and antiandrugenic benzothiophenes” (Eli Lilly and Company, priority 1981, dated 1983)

How the values were obtained:
estrogenic response [1] = assay: Estrogenic Response Test, immature mice (uterine weight); type: in vivo, immature 11-13 g. mice; settings: Experiment D, s.c.
Description: (§1) The first test reported below is used to determine the estrogenic potency of compounds. It is well known that many compounds having antiestrogenic activity also, typically, have estrogenic activity. As has been explained, estrogenic activity is a liability in an antiestrogen, and thus it is important to identify antiestrogens having a minimum amount of estrogenic activity. This test was conducted with immature 40-45 g. female rats, immature 11-13 g. mice, and adult ovariectomized mice. The rats were tested in groups of six, and mice in groups of ten. All of the laboratory animals were from standardized strains and were equilibrated to the laboratory before the test started. Each test was begun by administering the test compound daily for three days, as a subcutaneous injection or by oral gavage, as indicated below in the reports of individual experiments. Untreated control animals were included in each experiment, along with animals to which estradiol was administered subcutaneously. The estradiol-treated animals provided positive controls, showing the physiological effect of a potent estrogen on the individual group of animals used in the experiment. […] The test animals were treated for three days and sacrificed on the fourth day, and the uteri were removed, freed of extraneous tissue, and blotted with paper towels. The uteri were weighed to the nearest 0.1 mg. The tables below report the results of representative experiments. The doses of estradiol and of the compound of this invention are given as the total of the three daily doses. The uterine weights are given, in mg., as the means of all of the organ weights of the animals in a group. Compounds are referred to by their example numbers above.

estrogenic response [2] = assay: Estrogenic Response Test, mature ovariectomized mice (uterine weight); type: in vivo, adult ovariectomized mice; settings: Experiment E, s.c.
Description: as §1

[3] = tested on: estrogenic response of estradiol; assay: Antiestrogenic Test, immature mice (uterine weight); type: in vivo; settings: Experiment B, s.c. + estradiol 0.3 mcg.
Description: This test was conducted with immature 40-45 g. female rats, immature 11-13 g. mice, and adult ovariectomized mice. The rats were tested in groups of six, and mice in groups of ten. All of the laboratory animals were from standardized strains and were equilibrated to the laboratory before the test started. Each test was begun by administering the test compound daily for three days, as a subcutaneous injection or by oral gavage, as indicated below in the reports of individual experiments.
The test animals were treated for three days and sacrificed on the fourth day, and the uteri were removed, freed of extraneous tissue, and blotted with paper towels. The uteri were weighed to the nearest 0.1 mg.
The uterine weights are given, in mg., as the means of all of the organ weights of the animals in a group. Compounds are referred to by their example numbers above.
The same standardized types of laboratory animals which were used in the experiments described above were also used in these experiments. […] Untreated control animals were used in each experiment. […] The dosage and sacrifice schedule, and the method of determining uterine weights and reporting data, were the same as the methods described above under Test 1.

estrogenic response [4] = assay: Regression Test: reversal of established estrogenic response (uterine weight); type: in vivo, immature rats; settings: estradiol 0.1 mcg./day 3 days
Description: The following test was carried out to determine if the compounds of this invention could reverse an estrogenic response, when administration of the compound was started after the estrogenic response had become established.
The test animals were immature rats, and all administrations were by subcutaneous injection.
The mean uterine weights of these groups of animals, respectively, were 97.9, 97.3, 119.9 and 112.3 mg.
The animals were sacrificed on the fifth day and their mean uterine weight was 56.4 mg.
The animals were sacrificed on the seventh day and their mean uterine weight was 57.0 mg.

[5] = tested on: androgen-stimulated prostate growth; assay: Anti-Androgen Test, adult castrated male rats (ventral prostate weight); type: in vivo; settings: for Mean Prostate Weight: Experiment A
Description: The antiandrogenic property of the compounds was evaluated in the following tests, in which the compound of Example 3 was used again.
The animals used in this test were adult male rats having a body weight which averaged about 330 g. when the experiment ended. All of the animals to be used in the experiment were castrated by the scrotal route, and were held untreated for 3 days. On the fourth day, subcutaneous administration of 0.1 mg./day of an exogenous androgen, testosterone propionate, was begun, and was continued for seven consecutive days. An untreated control group of animals received injections of 0.1 ml./day of corn oil as a blank treatment. The compound of this invention was administered orally or subcutaneously to the treated animals in 0.1 ml. of corn oil, at the same time that the androgen was administered. The animals were sacrificed 24 hours after the last injection of testosterone propionate, the ventral prostate glands were removed and weighed, and the mean of the weights of each treatment group was reported. The table below reports the mean weights resulting from administration of various doses of the compound along with androgen.
Each treatment group of animals in this experiment consisted of seven to nine animals, except for the untreated control group, which contained twelve animals.

## O=C(c1ccc(OCCN2CCCCC2)cc1)c1c(-c2ccc(O)cc2)sc2cc(O)ccc12 [Example 3, 6-hydroxy-2-(4-hydroxyphenyl)-3-[4-(2-piperidinoethoxy)benzoyl]benzo[b]thiophene]
Estrogenic response [1]; total dose 3 mg.
  Uterine weight: 14.6 mg
Estrogenic response [1]; total dose 0.03 mcg.
  Uterine weight: 19.0 mg
Estrogenic response [1]; total dose 0.3 mcg.
  Uterine weight: 19.3 mg
Estrogenic response [1]; total dose 3 mcg.
  Uterine weight: 22.9 mg
Estrogenic response [1]; total dose 30 mcg.
  Uterine weight: 23.9 mg
Estrogenic response [1]; total dose 300 mcg.
  Uterine weight: 19.3 mg
Estrogenic response [2]; total dose 3 mg.
  Uterine weight: 23.1 mg
Estrogenic response [2]; total dose 0.3 mcg.
  Uterine weight: 18.2 mg
Estrogenic response [2]; total dose 3 mcg.
  Uterine weight: 25.6 mg
Estrogenic response [2]; total dose 30 mcg.
  Uterine weight: 26.2 mg
Estrogenic response [2]; total dose 300 mcg.
  Uterine weight: 24.8 mg
[3]; 3 mg.
  Uterine weight: 13.9 mg
[3]; 0.03 mcg.
  Uterine weight: 41.3 mg
[3]; 0.3 mcg.
  Uterine weight: 40.6 mg
[3]; 3 mcg.
  Uterine weight: 26.5 mg
[3]; 30 mcg.
  Uterine weight: 18.9 mg
[3]; 300 mcg.
  Uterine weight: 14.6 mg
Estrogenic response [4]; then estradiol + 1 mg. compound s.c. on following five days, sacrificed ninth day
  mean uterine weight: 50.7 mg
Estrogenic response [4]; then estradiol + 1 mg. compound s.c. on following three days, sacrificed seventh day
  mean uterine weight: 57.0 mg
Estrogenic response [4]; then estradiol + 1 mg. compound s.c. on fourth day, sacrificed fifth day
  mean uterine weight: 56.4 mg
[5]; 0.01 mg./day, S.C. + testosterone propionate 0.1 mg./day
  Mean Prostate Weight: 253 mg
[5]; 0.01 mg./day, oral + testosterone propionate 0.1 mg./day
  Mean Prostate Weight: 192 mg
[5]; 0.1 mg./day, S.C. + testosterone propionate 0.1 mg./day
  Mean Prostate Weight: 235 mg
[5]; 0.1 mg./day, oral + testosterone propionate 0.1 mg./day
  Mean Prostate Weight: 267 mg
[5]; 1 mg./day, S.C. + testosterone propionate 0.1 mg./day
  Mean Prostate Weight: 201 mg
[5]; 1 mg./day, oral + testosterone propionate 0.1 mg./day
  Mean Prostate Weight: 242 mg
[5]; conclusion in words, Experiments A-C
  effect on androgen-stimulated prostate growth: inhibited a large part of the abnormal prostate growth
